# Reference: article PMC9854774, “Monocarbonyl Curcumin Analogues as Potent Inhibitors against Human Glutathione Transferase P1-1” (Antioxidants, 2022)
# Entries after “also recorded” stand apart in the source; their conditions may differ. Like-named read-outs stand apart in the source and are kept apart here.
# Tests used:
# hGSTP1-1 [1] = molecular target: T1, hGSTP1-1 (Homo sapiens, UniProt P09211); test: hGSTP1-1 enzyme activity/inhibition assay (CDNB-GSH conjugation, 340 nm); type: biochemical; details: recombinant hGSTP1-1, 25 °C; for Enzyme Inhibition (%) / inhibition at 100 µM: compound at final concentration of 100 μM; for IC50: CDNB/GSH assay, read-out: IC50 against hGSTP1-1
# T1 construct: made in house; host or cells: E. coli BL21 (DE3)
# T1 sequence (P09211 2-210 limits assumed): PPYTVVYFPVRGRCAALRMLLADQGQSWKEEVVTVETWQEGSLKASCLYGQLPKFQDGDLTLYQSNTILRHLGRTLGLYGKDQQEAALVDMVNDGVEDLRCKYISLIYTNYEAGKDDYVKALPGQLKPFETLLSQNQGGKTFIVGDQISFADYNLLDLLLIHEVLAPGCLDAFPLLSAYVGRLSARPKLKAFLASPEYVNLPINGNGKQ
# Description: Determination of hGSTP1-1 activity was performed by monitoring the formation of the conjugate between CDNB and GSH and measuring the absorption at λ = 340 nm (ε = 9600 L·mol^−1·cm^−1) at 25 °C for 120 s, as described previously. One unit of enzyme activity is defined as the amount of enzyme that produces 1.0 μmol of product per minute under the assay conditions. Curcuminoids and monocarbonyl curcumin analogues were dissolved in DMSO (100 μΜ) and added to the assay mixture (the volume of DMSO was maintained at 2% v/v final concentration). The mixture was incubated at 25 °C for 1 min, prior to adding the enzyme sample. Initial velocities were determined in triplicates and were corrected for spontaneous reaction rates, when necessary. […] The IC50 values were determined from a graph of the remaining GST activity (%) against inhibitor concentration.
# (§1) The computer program GraphPad Prism version 8 (GraphPad Prism Software, Inc., San Diego, CA, USA) was used for producing kinetic graphs and determining apparent kinetic parameters/constants and IC50 values.
# hGSTP1-1 [2] = molecular target: T1, hGSTP1-1; design: method as in PMID 9463521, PMID 17046132; details: pH 7.4; presumably covalent binding to Cys-47; cited from earlier work
# hGSTP1-1 [3] = molecular target: T1, hGSTP1-1; test: Circular dichroism study of enzyme conformation; details: 5 μΜ inhibitor; 0.1 mg/mL hGSTP1-1, 2.5 mM GSH (± 1 mM CDNB), pH 6.5
# Description: CD studies were performed using a JASCO J-715 spectropolarimeter (Jasco Co., Tokyo, Japan) equipped with Peltier temperature controller (Jasco Co., Tokyo, Japan), at 25 °C and a wavelength range of 190–400 nm using a 1-mm-path length quartz cuvette. Each CD spectrum is the average of three scans at 200 nm·min^−1 and a resolution of 0.5 nm. The CD solutions were prepared by mixing the appropriate volumes of stock solutions to give final concentrations of 0.1 mg/mL of hGSTP1-1, 2.5 mM of GSH, 1 mM of CDNB, and 5 μΜ of inhibitor in potassium phosphate buffer (100 mM, pH 6.5) at room temperature, while CD spectra of plain solutions of GSH, CDNB, DM96, and DM62 at the same concentrations were also run as controls (see supporting information). The analysis of the CD data was performed using the OriginPro 9 program and the content of the secondary structure was calculated through the CDNN Circular Dichroism Spectroscopy Deconvolution software.
# hGSTP1-1 [4] = molecular target: T1, hGSTP1-1; test: Kinetic inhibition analysis of hGSTP1-1 (Lineweaver-Burk); type: biochemical; details: for Experimental Binding Free Energy ΔGexp: calculated from Ki; for Experimental Binding Free Energy ΔG′exp: calculated from Ki΄; for Type of Inhibition: pH 6.5, 25 °C; for Inhibition Constant Ki΄: binding to enzyme-substrate complex; for Ki: binding to free enzyme, read-out: Inhibition Constant Ki
# Description: as §1
# Initial velocities (25 °C) for the hGSTP1-1-catalyzed reaction with CDNB as a variable substrate were determined in reaction mixtures (1 mL total volume) containing potassium phosphate buffer (100 mM, pH 6.5), 2.5 mM GSH, and different concentrations of CDNB (typically 14–1000 μM) in the absence and presence of inhibitors (DM96, DM151, DM109, DMC, 0–50 μM). Initial velocities for the hGSTP1-1-catalyzed reaction with GSH as a variable substrate were determined in reaction mixtures (1 mL total volume) (25 °C) containing potassium phosphate buffer (100 mM, pH 6.5), 1 mM CDNB, and different concentrations of GSH (typically 37.5–3750 μΜ) in the absence and presence of inhibitors (DM96, DM151, DM109, Curcumin II, 0–50 μM).
# DU-145 cells = test: In vitro cytotoxicity, MTT colorimetric assay; type: cell-based, human; details: read-out: IC50 against DU-145
# Description: DU-145 cells were grown in Dulbecco’s modified eagle medium (DMEM) growth medium of pH 7.4, supplemented with 10% fetal bovine serum (FBS), penicillin (100 U·mL^−1), glutamine (2 mM), and streptomycin (100 μg·mL^−1). Cell cultures were maintained in flasks and were grown at 37 °C in a humidified atmosphere of 5% CO2 in air. […] The subcultivation ratio was 1:2 to 1:5.
# Cells were seeded in 96-well plates (8 × 10^3 cells/well in 100 μL culture medium) and grown overnight at 37 °C in a 5% CO2 incubator. Exponentially growing cells were incubated for 48 h with various concentrations ranging between 10^−3–10^−[…] of each derivative, and the final DMSO concentration never exceeded 0.2%. The medium was then removed and replaced with 100 μL of MTT solution (1 mg·mL^−1). After a 4 h incubation, the solution was aspirated, formazan crystals were solubilized in 100 μL of DMSO, and absorbance was recorded at 540 nm on a Tecan well plate reader. The results were expressed as % cell viability = (mean optical density (OD) of treated cells/mean OD of untreated cells) × 100.
# [5] = system: native GST extracted from DU-145 cells; test: Inhibition of native GST activity in DU-145 cell lysate; type: biochemical, human; details: inhibitor at its IC50 for recombinant hGSTP1-1, 25 °C
# Description: DU-145 cells were trypsinized, transferred to a Falcon tube, and centrifuged at 1500× g for 10 min. Subsequently, DMEM was removed and the cell pellet was resuspended in 1 mL of potassium phosphate buffer. The cells were lysed by sonication, the suspension was centrifuged at 13,000× g for 5 min, and the supernatant was collected.
# [6] = variable substrate CDNB, 2.5 mM GSH
# [7] = variable substrate GSH, 1 mM CDNB
# [8] = Homo sapiens, DU-145, 48 h, MTT, 48 h incubation
Compound,inhibition at 100 µM (hGSTP1-1 [1]),IC50 (hGSTP1-1 [1]),Enzyme Inhibition (%) (hGSTP1-1 [1]; 100 µM),Experimental Binding Free Energy ΔGexp (hGSTP1-1 [4]; variable substrate CDNB),Experimental Binding Free Energy ΔGexp (hGSTP1-1 [4]; variable substrate GSH),Ki (hGSTP1-1 [4]; variable substrate CDNB),Ki (hGSTP1-1 [4]; variable substrate GSH),also measured
"2,6-bis(3,4-dihydroxybenzylidene)cyclohexanone [DM57]",,,,,,,,Enzyme Inhibition (%) (hGSTP1-1 [1]): 16.75 ± 3.61%
"2,6-dibenzylidenecyclohexanone [DM15]",,,,,,,,Enzyme Inhibition (%) (hGSTP1-1 [1]): 66.23 ± 2.57%
COc1cc(/C=C/C(=O)CC(=O)/C=C/c2ccc(O)c(OC)c2)ccc1O [Curcumin],,,,,,,,Mode of inhibition of hGSTP1-1 (hGSTP1-1 [2]): irreversible inhibitor
"COc1ccc(/C=C2\CCC/C(=C\c3ccc(OC)cc3)C2=O)cc1 [DM46, 2,6-bid(4-methoxybenzylidene)cyclohexanone]",8.5 ± 2.13%,,,,,,,
"O=C1/C(=C/c2ccc(F)cc2)CCC/C1=C\c1ccc(F)cc1 [DM62, (2E,6E)-2,6-bis(4-fluorobenzylidene)cyclohexanone]",8.4 ± 0.36%,,,,,,,Effect on CD spectrum / conformation of the enzyme (hGSTP1-1 [3]): does not cause the conformational changes observed with DM96
"COc1ccc(/C=C/C(=O)/C=C/c2ccc(OC)c(OC)c2)cc1OC [DM95, (1E,4E)-1,5-bis(3,4-dimethoxyphenyl)penta-1,4-dien-3-one]",44.2 ± 3.06%,,,,,,,
"O=C(C=Cc1ccc(O)cc1)C=Cc1ccc(O)cc1 [DM96, 1,5-bis(4-hydroxyphenyl)penta-1,4-dien-3-one]",~95%,5.45 ± 1.08 µM,86.99 ± 1.88%,-7.71 kcal/mol,-7.71 kcal/mol,3.67 µM,3.69 µM,Experimental Binding Free Energy ΔG′exp (hGSTP1-1 [4]; variable substrate CDNB): -7.52 kcal/mol; Experimental Binding Free Energy ΔG′exp (hGSTP1-1 [4]; variable substrate GSH): -8.29 kcal/mol; Type of Inhibition (hGSTP1-1 [4]; [6]): mixed-type inhibitor; also recorded: Purely mixed; Inhibition Constant Ki΄ (hGSTP1-1 [4]; variable substrate CDNB): 4.97 ± 2.86 μΜ; Type of Inhibition (hGSTP1-1 [4]; [7]): partially mixed; also recorded: Partial mixed; Inhibition Constant Ki΄ (hGSTP1-1 [4]; variable substrate GSH): 1.45 ± 0.43 μΜ; IC50 (DU-145 cells; [8]): 8.6 ± 1.07 µM; Effect on CD spectrum / conformation of the enzyme (hGSTP1-1 [3]): causes a great change in the CD spectrum
"COc1cc(C=C2CCCC(=Cc3ccc(O)c(OC)c3)C2=O)ccc1O [DM100, 2,6-bis(3-methoxy-4-hydroxy-benzylidene)cyclohexanone]",40 ± 1.84%,,,,,,,
"O=C(/C=C/c1ccc(F)cc1)/C=C/c1ccc(F)cc1 [DM109, (1E,4E)-1,5-bis(4-fluorophenyl)penta-1,4-dien-3-one]",~95%,19.5 ± 1.04 µM,79.06 ± 2.54%,ΔGexp = −6.66 kcal/mol,ΔGexp = −5.96 kcal/mol,20.1 µM,35.1 µM,"Type of Inhibition (hGSTP1-1 [4]; [6]): Purely non-competitive; Type of Inhibition (hGSTP1-1 [4]; [7]): Purely non-competitive; IC50 (DU-145 cells; [8]): 44.6 ± 1.08 µM; IC50 (DU-145 cells; MTT, 48 h incubation): 46.1 ± 3.68 µM"
"O=C(/C=C/c1ccc(O)c(O)c1)/C=C/c1ccc(O)c(O)c1 [DM148, (1E,4E)-1,5-bis(3,4-dihydroxyphenyl)penta-1,4-dien-3-one]",54.8 ± 0.52%,,,,,,,
"O=C1C(=Cc2ccc(O)c(O)c2)CCCC1=Cc1ccc(O)c(O)c1 [DM151, 2,6-bis(3,4-dihydroxybenzylidene)cyclohexanone]",,11.2 ± 1.03 µM,88.18 ± 3.65%,ΔGexp = −7.12 kcal/mol,ΔGexp = −7.43 kcal/mol,9.55 µM,5.79 µM,"Enzyme Inhibition (%) [5]: did not show any inhibition at all; also recorded: No inhibition was observed; Type of Inhibition (hGSTP1-1 [4]; [6]): Purely non-competitive; Type of Inhibition (hGSTP1-1 [4]; [7]): Purely non-competitive; IC50 (DU-145 cells; [8]): 46.1 ± 3.68 µM; IC50 (DU-145 cells; MTT, 48 h incubation): 44.6 ± 1.08 µM"
"COc1cc(/C=C/C(O)=C/C(=O)/C=C/c2ccc(O)cc2)ccc1O [DMC, Demethoxycurcumin]",,37.7 ± 1.02 µM,94.56 ± 0.25%,-7.66 kcal/mol,-5.91 kcal/mol,3.99 µM,68 µM,"Experimental Binding Free Energy ΔG′exp (hGSTP1-1 [4]; variable substrate CDNB): -7.98 kcal/mol; Experimental Binding Free Energy ΔG′exp (hGSTP1-1 [4]; variable substrate GSH): -6.07 kcal/mol; Type of Inhibition (hGSTP1-1 [4]; variable substrate CDNB, 2.5 mM GSH, listed as Curcumin II): Partially mixed; Inhibition Constant Ki΄ (hGSTP1-1 [4]; variable substrate CDNB): 2.36 ± 1.37 μΜ; Type of Inhibition (hGSTP1-1 [4]; variable substrate GSH, 1 mM CDNB, listed as Curcumin II): Partially mixed; Inhibition Constant Ki΄ (hGSTP1-1 [4]; variable substrate GSH): 52.83 ± 12.25 μΜ; IC50 (DU-145 cells; Homo sapiens, DU-145, 48 h): 48.5 ± 1.09 µM"
